Where a name gives a salt, the structure may show the parent alone. Active and inactive are the calls of the source.

Test [1] addresses T1, Heat shock factor protein 1 (Mus musculus, UniProt P38532).
T1 sequence (P38532 whole entry): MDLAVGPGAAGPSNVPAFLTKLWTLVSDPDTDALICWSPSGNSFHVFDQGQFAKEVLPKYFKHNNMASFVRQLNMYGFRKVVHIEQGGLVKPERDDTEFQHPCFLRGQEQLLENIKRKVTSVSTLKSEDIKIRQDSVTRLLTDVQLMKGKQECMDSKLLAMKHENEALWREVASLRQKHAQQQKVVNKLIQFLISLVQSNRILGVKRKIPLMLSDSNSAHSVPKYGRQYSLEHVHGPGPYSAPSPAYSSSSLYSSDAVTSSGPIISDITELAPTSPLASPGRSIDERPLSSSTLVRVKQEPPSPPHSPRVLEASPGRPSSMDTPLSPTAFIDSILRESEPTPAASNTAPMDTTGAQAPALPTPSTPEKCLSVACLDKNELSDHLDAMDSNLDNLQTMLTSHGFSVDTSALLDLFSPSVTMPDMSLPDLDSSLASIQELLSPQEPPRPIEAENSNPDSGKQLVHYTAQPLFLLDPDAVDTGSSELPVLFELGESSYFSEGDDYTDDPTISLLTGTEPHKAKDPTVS
Put plainly: inhibition of MG132-induced HSE-luciferase signal, confirmation, cell-based, NIH3T3, luminescence, dose retest (AID 2382).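 Further: NIH3T3 fibroblasts with HSF1-driven luciferase reporter stressed by proteasome inhibitor MG132; luminescence from HSF1-driven luciferase expression after 8 hours of MG132 stress.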 Type of test: functional.

The nature of test [2]: NIH-3T3 fibroblast cytotoxicity, dose response, cytotoxicity control, cell-based, fluorescence, Alamar Blue, secondary assay (AID 2327).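 Further: NIH-3T3 mouse fibroblasts cultured with fluconazole at 8 µg/mL.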 Type of test: functional.
Test [3] can be described thus: C. albicans growth with fluconazole, confirmation, fluorescence, retest (AID 2467). Type of test: functional, cell-based.
For a further test, the target named is T2, Cytochrome P450 1A2 (Homo sapiens, UniProt P05177).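 Further: PubChem cytochrome P450 panel assay, CYP1A2 panel member.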
T2 sequence (P05177 whole entry): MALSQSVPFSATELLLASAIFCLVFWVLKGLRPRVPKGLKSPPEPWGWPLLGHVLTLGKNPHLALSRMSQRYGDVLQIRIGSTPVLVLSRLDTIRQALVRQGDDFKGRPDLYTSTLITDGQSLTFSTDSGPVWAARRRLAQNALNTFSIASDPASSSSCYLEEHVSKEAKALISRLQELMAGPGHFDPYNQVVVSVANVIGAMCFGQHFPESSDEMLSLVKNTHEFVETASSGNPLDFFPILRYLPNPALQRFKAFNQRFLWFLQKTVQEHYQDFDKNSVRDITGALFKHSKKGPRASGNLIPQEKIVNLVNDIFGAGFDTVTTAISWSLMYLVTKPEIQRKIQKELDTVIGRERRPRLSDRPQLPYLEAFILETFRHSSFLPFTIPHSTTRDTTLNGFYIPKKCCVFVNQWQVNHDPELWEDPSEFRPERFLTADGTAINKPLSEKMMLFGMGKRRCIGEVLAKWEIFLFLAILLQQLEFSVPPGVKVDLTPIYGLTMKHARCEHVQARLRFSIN

A further test has as its target Cytochrome P450 2C9 (Homo sapiens, UniProt P11712).
Test [4] can be described thus: Luminescence Cell-Based Dose Retest to Confirm Inhibitors of Cancer Stem Cells. [Related pubchem assays (depositor defined):AID2717, AID2721]. Type of test: functional. The following applies: Homo sapiens.
A further test deals with Cytochrome P450 2C19 (Homo sapiens, UniProt P33261). Put plainly: Cytochrome panel assay with activity outcomes. Panel member name: p450-cyp2c19 Compounds with AC50 equal or less than 10 uM are considered active. Type of test: functional. The following applies: read-out: AC50.
Another test addresses Cytochrome P450 3A4 (Homo sapiens, UniProt P08684).
Test [5] deals with Streptococcus sp. 'group A'. The experiment in a line: growth inhibition of control SK(-) GAS strain, dose response, counter-screen for streptokinase expression inhibitor project, luminescence, kanamycin, BacTiterGlo, confirmation (AID 1900). Type of test: functional, organism-based. On the technique in general: A counterscreen serves to expose hits that act by an unwanted route or on another target.

For the next test, the system named is Streptococcus. Put plainly: Group A Streptococcus viability loss, dose response, counter-screen for streptokinase expression inhibitor project, luminescence, BacTiterGlo (AID 1915).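 Further: potency for reduction of bacterial viability or growth.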 Type of test: functional, organism-based. The following applies: read-out: EC50.

Cytochrome P450 2C9, sequence (P11712 whole entry): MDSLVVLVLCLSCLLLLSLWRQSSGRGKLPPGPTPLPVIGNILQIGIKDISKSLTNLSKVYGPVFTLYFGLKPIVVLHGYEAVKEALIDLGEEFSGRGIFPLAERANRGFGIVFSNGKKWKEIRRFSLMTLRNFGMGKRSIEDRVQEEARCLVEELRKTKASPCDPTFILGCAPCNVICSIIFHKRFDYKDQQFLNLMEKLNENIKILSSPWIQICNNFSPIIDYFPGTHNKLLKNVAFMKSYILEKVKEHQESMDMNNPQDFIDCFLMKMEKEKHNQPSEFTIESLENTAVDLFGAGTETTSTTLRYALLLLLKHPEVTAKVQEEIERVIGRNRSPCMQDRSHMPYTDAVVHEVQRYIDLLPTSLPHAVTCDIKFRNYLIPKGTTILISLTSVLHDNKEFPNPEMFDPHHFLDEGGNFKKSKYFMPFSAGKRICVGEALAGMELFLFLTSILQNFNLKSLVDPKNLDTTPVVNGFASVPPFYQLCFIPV
Cytochrome P450 2C19, sequence (P33261 whole entry): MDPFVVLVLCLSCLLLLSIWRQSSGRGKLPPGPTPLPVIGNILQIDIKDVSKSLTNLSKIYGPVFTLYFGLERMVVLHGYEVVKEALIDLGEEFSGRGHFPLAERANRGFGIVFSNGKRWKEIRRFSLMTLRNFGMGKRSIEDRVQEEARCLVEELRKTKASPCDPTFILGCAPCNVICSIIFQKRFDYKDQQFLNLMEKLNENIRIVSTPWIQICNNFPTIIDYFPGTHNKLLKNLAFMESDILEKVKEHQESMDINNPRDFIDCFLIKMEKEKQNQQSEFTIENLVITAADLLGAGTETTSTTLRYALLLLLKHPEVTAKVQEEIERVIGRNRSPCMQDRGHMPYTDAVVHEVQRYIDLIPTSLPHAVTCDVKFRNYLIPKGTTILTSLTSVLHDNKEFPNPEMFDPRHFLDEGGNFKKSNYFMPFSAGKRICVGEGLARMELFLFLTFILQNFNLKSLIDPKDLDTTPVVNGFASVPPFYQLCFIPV
Cytochrome P450 3A4, sequence (P08684 whole entry): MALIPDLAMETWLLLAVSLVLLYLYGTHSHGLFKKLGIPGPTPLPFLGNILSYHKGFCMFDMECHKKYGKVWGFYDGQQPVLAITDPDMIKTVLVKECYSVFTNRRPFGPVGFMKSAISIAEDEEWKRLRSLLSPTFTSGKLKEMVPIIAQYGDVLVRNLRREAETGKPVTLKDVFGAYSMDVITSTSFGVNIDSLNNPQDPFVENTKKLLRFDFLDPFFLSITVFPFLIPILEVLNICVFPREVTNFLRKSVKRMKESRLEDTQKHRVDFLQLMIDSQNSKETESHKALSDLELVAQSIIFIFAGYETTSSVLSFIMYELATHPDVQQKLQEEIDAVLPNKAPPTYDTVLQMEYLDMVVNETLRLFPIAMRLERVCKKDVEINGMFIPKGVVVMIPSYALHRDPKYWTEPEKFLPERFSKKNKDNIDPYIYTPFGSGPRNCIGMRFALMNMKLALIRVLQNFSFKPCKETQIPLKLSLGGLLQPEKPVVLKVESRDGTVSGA

In the case of `COc1cccc2c(=O)n(CC(=O)NCCc3ccccc3)ccc12`, the EC50 in [1] is listed as > 195 µM (not active).

As for `CCN1CCN(c2cc(C)c3cc(NC(=S)N4CCCC(C)C4)ccc3n2)CC1` (stereo not drawn), in test [1], the EC50 was 11 µM (active).

In the case of `COc1ccc(C(=O)NCCN2CCOCC2)c(OC)c1OC`, the EC50 was > 150 µM (inactive) in test [2] and > 38 µM (not active) in test [3].

With `CCCCCCCCCCCCCCCC[N+](C)(C)CCN(Cc1ccc(OC)cc1)c1ncccn1` [THONZONIUM], the half-maximal activity concentration (AC50) at Cytochrome P450 1A2 is 20 µM (inconclusive); on Cytochrome P450 2C9 it was 15.8 µM (inconclusive).

With `CC(C)c1ccc(NC(=O)Nc2cc3sccc3n2C)cc1`, the half-maximal effective concentration (EC50) in test [1] is on record as > 195 µM (not active).

For the compound `O=C(O)c1cc(S(=O)(=O)Nc2ccc3c(c2)OCCO3)c(Cl)cc1Cl`, the concentration for a half-maximal effect (EC50) in [1] was 2.54 µM (active).

Consider `CN(CCC(=O)O)S(=O)(=O)c1ccccc1`, for which, on Cytochrome P450 1A2, the AC50 was 3.16 µM (inconclusive).

On to `O=C(CCS(=O)(=O)c1cccc2nsnc12)NC1CCCCC1`, for which the AC50 at Cytochrome P450 1A2 was 25.1 µM (inconclusive).

Take `CC(C)CNS(=O)(=O)c1ccc(CCC(=O)N2CCOCC2)cc1`: in [1], the EC50 is recorded as > 195 µM (not active).

In the case of `Cc1cc(C)c(C#N)c(SCC(=O)NC(C)(C)C)n1`, in [1], the EC50 is reported as > 195 µM (not active).

As to `Oc1cc(C(F)(F)F)nc2c(OC(F)(F)F)cccc12`, the half-maximal activity concentration (AC50) in test [4] is 22.4 µM (active).

`OC(CN1CCN(c2ccccn2)CC1)Cn1c2ccc(Cl)cc2c2cc(Cl)ccc21` (stereo not drawn): in [4], the half-maximal activity concentration (AC50) is 3.21 µM (active).

Regarding `O=C(O)Cn1c(=O)c2c3c(sc2n(Cc2ccc(Cl)cc2Cl)c1=O)CCCC3`, the EC50 in test [1] is recorded as > 195 µM (not active).

In the case of `COCCCC/C(=N\OCCN)c1ccc(C(F)(F)F)cc1` [FLUVOXAMINE MALEATE], the EC50 in [1] was > 195 µM (not active).

Regarding `COCCn1c(=S)[nH]c2cc(C(=O)NC(C)C)ccc2c1=O`, the AC50 on Cytochrome P450 1A2 was 3.16 µM (inconclusive).

As to `CCCCSC1=C(C#N)C(c2ccccc2C)CC(=O)N1` (stereo not drawn), in [1], the EC50 is > 195 µM (not active).

As for `Clc1cccc(N/N=C/c2ccncc2)c1`, the EC50 in test [2] is > 160 µM (inactive); in [3] it was > 38 µM (not active).

`Cc1ccc(C(=O)C(OC(=O)CCC(=O)Nc2cccc(C)c2)c2ccccc2)cc1` (stereo not drawn): the concentration at half-maximal activity (AC50) on Cytochrome P450 1A2 was 17.8 µM (inconclusive).

Consider `CCOc1ccccc1NC(=O)C(=O)NCC1CCCN1CC` (stereo not drawn), for which, at Cytochrome P450 1A2, the AC50 is 15.8 µM (inconclusive).

On to `CSc1ccc(/C=C/C(=O)Nc2ccccc2)cc1`, for which the EC50 was > 150 µM (inactive) in test [2] and > 38 µM (not active) in test [3].

Regarding `CCOC(=O)C(CC)/C(C)=N\NC(=O)c1ccccc1O` (stereo not drawn), the results for the EC50 in [2] and in test [3] were > 160 µM (inactive) and > 38 µM (not active), respectively.

In the case of `CN(C)CCCc1cc(C(=O)Nc2ccc(-c3ccncc3)cc2)ccc1O` [GR-55562], the AC50 is 39.8 µM (inconclusive) at Cytochrome P450 1A2, 31.6 µM (inconclusive) on Cytochrome P450 2C19 and 1.26 µM (inconclusive) at Cytochrome P450 3A4.

For `Cc1cc(S(=O)(=O)N2CCCC2)ccc1OCC(=O)NCc1ccccc1`, the 50% effective concentration (EC50) in [1] is > 195 µM (not active).

On to `Cc1cccc(-n2nc(C(=O)c3ccco3)cc(-c3nc4ccccc4[nH]3)c2=N)c1`, for which the half-maximal effective concentration (EC50) in [5] is 2.49 µM (active); in the test on Streptococcus, 5.95 µM (active); in test [2], > 160 µM (inactive); in test [3] it was > 38 µM (not active).

Regarding `O=C(CCS(=O)(=O)c1cccc2nsnc12)N1CCN(C(=O)c2ccco2)CC1`, the results for the EC50 in test [2] and in test [3] were > 160 µM (inactive) and > 38 µM (not active), respectively.

Consider `Nc1c(C(O)(C(F)(F)F)C(F)(F)F)cc(C(O)(C(F)(F)F)C(F)(F)F)c2ccccc12`, for which, in test [4], the AC50 is 2.46 µM (active).

Consider `COc1ccccc1N(C)S(=O)(=O)c1ccc(C(=O)NC(C)c2ccccc2)cc1` (stereo not drawn), for which the EC50 in [1] is listed as > 195 µM (not active).

As to `CC(=O)Nc1ccc(OCC(O)CN2CCN(c3ccc(C)c(Cl)c3)CC2)cc1` (stereo not drawn), the AC50 in test [4] is 7.01 µM (active).

As for `COC(=O)c1ccc2c(=O)n(-c3ccccc3)c(=S)[nH]c2c1`, in test [1], the EC50 is > 195 µM (not active).

On to `O=C(Nc1ccccc1)OCN1C(=O)c2ccccc2C1=O`, for which the EC50 is > 150 µM (inactive) in [2] and > 38 µM (not active) in test [3].

Take `COc1ccccc1CNCC(O)(c1ccc(Cl)cc1)c1ccc(Cl)cc1`: the AC50 at Cytochrome P450 1A2 is 10 µM (inconclusive).

Consider `CC(C)c1nc2sc3ccccc3c(=O)c2c(=O)n1Cc1ccccc1`, for which the AC50 in test [4] is 0.796 µM (active).

`Cc1oc(-c2cccs2)nc1CN1CCN(Cc2ccc(F)c(F)c2)C(CCO)C1` (stereo not drawn): the EC50 in test [2] was > 150 µM (inactive); in test [3] it was > 38 µM (not active).

Turning to `Cc1ccc2nc(O)c(CN(C(=O)c3cccc([N+](=O)[O-])c3)C(C)C)cc2c1`, in test [1], the concentration for a half-maximal effect (EC50) is given as > 195 µM (not active).

Turning to `Cc1cc2ccc(OC(=O)c3ccc(NC(=N)N)cc3)cc2oc1=O`, on Cytochrome P450 1A2, the AC50 is 2.51 µM (inconclusive).

For the compound `O=C(CCCCCN1C(=O)c2ccccc2C1=O)NCc1ccccn1`, the half-maximal activity concentration (AC50) on Cytochrome P450 1A2 was 14.1 µM (inconclusive); on Cytochrome P450 3A4, 25.1 µM (inconclusive); at Cytochrome P450 2C9, 31.6 µM (inconclusive).

On to `CN[C@H](CC(=O)O)C(=O)O` [N-METHYL-D-ASPARTIC ACID (NMDA)], for which the half-maximal activity concentration (AC50) on Cytochrome P450 1A2 is 39.8 µM (inconclusive).

In the case of `CCNc1ncc2nc(CCc3ccccc3)c(=O)n(Cc3ccc(F)cc3)c2n1`, at Cytochrome P450 1A2, the AC50 is 3.16 µM (inconclusive).

Regarding `Cc1ccc2c(ccc[n+]2CC(=O)c2ccccc2)c1`, the EC50 is > 150 µM (inactive) in test [2] and > 38 µM (not active) in test [3].

`COCC(=O)N1CCC2(CC1)CN(Cc1cc(C(F)(F)F)cc(C(F)(F)F)c1)C2`: the concentration at half-maximal activity (AC50) at Cytochrome P450 1A2 is 25.1 µM (inconclusive); at Cytochrome P450 2C19, 20 µM (inconclusive); at Cytochrome P450 2C9, 12.6 µM (inconclusive).

Turning to `Cc1noc(NS(=O)(=O)c2ccc(N3Cc4ccccc4C3=O)cc2)c1C`, in test [1], the 50% effective concentration (EC50) is > 195 µM (not active).

As for `O=C(CC1C(=O)NCCN1Cc1ccccc1F)NC1CCCCCC1` (stereo not drawn), in test [1], the EC50 is 24.1 µM (active).

As for `COC(=O)N1CCC[C@@]2(CCN(C(c3ccccc3)c3ccccc3)C2)C1`, the concentration at half-maximal activity (AC50) at Cytochrome P450 1A2 is 12.6 µM (inconclusive); at Cytochrome P450 2C19 it was 39.8 µM (inconclusive); on Cytochrome P450 2C9, 25.1 µM (inconclusive).

As usually defined, the EC50 is the concentration giving half of the maximal effect. In general, AC50 refers to the concentration giving half of the maximal activity seen.

(Values after ChEMBL document CHEMBL1201862, “PubChem BioAssay data set” (2004).)
